Laboratory results: patent US10322123B2, “Compound for anti-cancer therapy that acts by targeting GOF mutant P53 and stimulates P73 to restore the P53 pathway signaling” (The Penn State Research Foundation, priority 2014, dated 2019)

Key:
[1] = tested on: wild-type p53; assay: Wild-type p53 protein level Western blot; format: cell-based, human; details: 8 hr
Experimental: (§1) Proteins were extracted from cells and electrophoresed through 4-12% SDS-PAGE then transferred to PVDF membranes. The primary antibodies indicated in the figures were incubated with the transferred PVDF in blocking buffer at 4° C. overnight. Antibody binding was detected on PVDF with appropriate IRDye-secondary antibodies (LI-COR Biosciences, USA) by the ODYSSEY infrared imaging system.

[2] = tested on: DLD-1 cells; assay: CellTiter-Glo cell viability, DLD-1 with Ad-p73 or p73 knock-down; format: cell-based, human; details: for Combination index (CI): DLD-1
Experimental: (§2) Cells at a concentration of 5000 cells/well in 96-well plates were treated with NSC59984 or other drugs. At seventy-two hours after treatment, cells were mixed with an equal volume of CellTiter-Glo reagents (Promega, Madison, Wis.), following the manufacturer's protocol, and bioluminescence imaging was measured using the IVIS imager.
(§3) Cells were infected with retrovirus containing the pSIREN-REtrpcQ retroviral vector recombinant with TAp73 RNAi. Cells were cultured with blasticidin for several weeks, and blasticidin-resistant clones were selected. Knock-down of p73 was detected by measuring p73 protein levels by Western blot with anti-p73 antibody (Bethyl laboratories Inc. USA).
Cells were infected with an adenovirus that expresses p73-beta (Ad-p73) or wild type p53 (Ad-p53) and cultured for 24 hr, as previously described (Huang C, et al., Cancer Biol Ther 2009; 8: 2186-93). Then, the infected cells were cultured in fresh medium and subjected to different treatments.
(§4) All results were obtained from triplicate experiments, unless other indicated. Statistical analyses were performed using PRISM4 Software (GraphPad Software, Inc., San Diego, Calif., USA), ANOVA and Student's t-test. Statistical significances were determined by p<0.05. Combination indices were calculated using the Chou-Talalay method with CalcuSyn software (biosoft).

[3] = tested on: Hop92 and SW480 cells; assay: Flow cytometry sub-G1 DNA content; format: cell-based, human; details: 25 μM and 50 μM, 8 hours
Experimental: Cells were treated with NSC59984 or other drugs. […] The samples were then subjected to analysis by an Epics Elite flow cytometer to measure the DNA content of the stained cells.

[4] = tested on: cancer cell lines bearing different p53 mutations; assay: CellTiter-Glo luminescent cell viability assay, cell line panel; format: cell-based, human; details: most cancer cells compared with normal cells, 72 hr
Experimental: as §2

[5] = tested on: MDM2; assay: Phosphorylation Western blot; format: cell-based, human; details: SW480 cells
Experimental: as §1

[6] = tested on: Wi38 normal fibroblast cells; assay: CellTiter-Glo cell viability, combination with CPT-11; format: cell-based, human; details: for Combination index (CI): Wi38, 72 hr
Experimental: as §2, §4

[7] = tested on: SW480 cancer cells; assay: as above; format: cell-based, human; details: for Combination index (CI): SW480, 72 hr
Experimental: as §2, §4

[8] = tested on: MRC-5 normal fibroblast cells; assay: as above; format: cell-based, human; details: for Combination index (CI): MRC, 72 hr
Experimental: as §2, §4

[9] = tested on: PARP cleavage; assay: Cleaved PARP Western blot; format: cell-based, human; details: for PARP cleavage: 30 hours
Experimental: as §1

[10] = tested on: DLD-1 cells; assay: Flow cytometry sub-G1 DNA content; format: cell-based, human
Experimental: (§5) Cells were treated with NSC59984 or other drugs. Seventy-two hours after treatment, the cells were fixed with ethanol and stained with Propidium Iodide (PI). The samples were then subjected to analysis by an Epics Elite flow cytometer to measure the DNA content of the stained cells.
as §3

[11] = tested on: Wi38 normal human fibroblast cells; assay: Flow cytometry sub-G1 DNA content; format: cell-based; details: 50 μM, 72 hr
Experimental: as §5

[12] = tested on: MRC5 normal human fibroblast cells; assay: Flow cytometry sub-G1 DNA content; format: cell-based; details: 50 μM, 72 hr
Experimental: as §5

[13] = CPT-11 15 mg/ml, NSC59984 12 mM
[14] = CPT-11 15 mg/ml, NSC59984 25 mM
[15] = CPT-11 15 mg/ml, NSC59984 50 mM
[16] = CPT-11 30 mg/ml, NSC59984 12 mM
[17] = CPT-11 30 mg/ml, NSC59984 25 mM
[18] = CPT-11 30 mg/ml, NSC59984 50 mM
[19] = CPT-11 60 mg/ml, NSC59984 12 mM
[20] = CPT-11 60 mg/ml, NSC59984 25 mM
[21] = CPT-11 60 mg/ml, NSC59984 50 mM
[22] = CPT-11 120 mg/ml, NSC59984 6 mM
[23] = CPT-11 120 mg/ml, NSC59984 12 mM
[24] = CPT-11 120 mg/ml, NSC59984 25 mM
[25] = CPT-11 120 mg/ml, NSC59984 50 mM

Structure (SMILES): CN1CCN(C(=O)/C=C/c2ccc([N+](=O)[O-])o2)CC1 [NSC59984, (E)-1-(4-methylpiperazin-1-yl)-3-(5-nitrofuran-2-yl)prop-2-en-1-one]
- wild-type p53 protein ([1]; HCT116 cancer cells, 25 and 50 μM): up-regulated
- wild-type p53 protein ([1]; MRC-5 normal cells, 50 μM): up-regulated
- Combination index (CI) ([2]; Ad-P73 dilution 1:1k, NSC59984 12 μM): 0.273
- Combination index (CI) ([2]; Ad-P73 dilution 1:1k, NSC59984 25 μM): 0.12
- Combination index (CI) ([2]; Ad-P73 dilution 1:1k, NSC59984 50 μM): 0.033
- Combination index (CI) ([2]; Ad-P73 dilution 1:2k, NSC59984 12 μM): 0.357
- Combination index (CI) ([2]; Ad-P73 dilution 1:2k, NSC59984 25 μM): 0.127
- Combination index (CI) ([2]; Ad-P73 dilution 1:2k, NSC59984 50 μM): 0.039
- Combination index (CI) ([2]; Ad-P73 dilution 1:4k, NSC59984 12 μM): 0.303
- Combination index (CI) ([2]; Ad-P73 dilution 1:4k, NSC59984 25 μM): 0.121
- Combination index (CI) ([2]; Ad-P73 dilution 1:4k, NSC59984 50 μM): 0.037
- Combination index (CI) ([2]; Ad-P73 dilution 1:8k, NSC59984 12 μM): 0.319
- Combination index (CI) ([2]; Ad-P73 dilution 1:8k, NSC59984 25 μM): 0.115
- Combination index (CI) ([2]; Ad-P73 dilution 1:8k, NSC59984 50 μM): 0.036
- Combination index (CI) ([2]; Ad-P73 dilution 1:16k, NSC59984 12 μM): 0.239
- Combination index (CI) ([2]; Ad-P73 dilution 1:16k, NSC59984 25 μM): 0.098
- Combination index (CI) ([2]; Ad-P73 dilution 1:16k, NSC59984 50 μM): 0.027
- Combination index (CI) ([2]; Ad-P73 dilution 1:32k, NSC59984 12 μM): 0.636
- Combination index (CI) ([2]; Ad-P73 dilution 1:32k, NSC59984 25 μM): 0.282
- Combination index (CI) ([2]; Ad-P73 dilution 1:32k, NSC59984 50 μM): 0.078
- cell viability, combination with exogenous p73 ([2]; DLD-1 cells infected with Ad-p73): synergized
- cell viability ([2]; p73 knock-down DLD-1 cells compared with DLD-1 cells, 72 hr): higher
- subG1 DNA-content [3]: nor subG1 DNA-content was increased
- EC50 cell viability [4]: significantly lower
- phosphorylation of MDM2 [5]: phosphorylated at Ser166
- Combination index (CI) ([6]; CPT-11 15 mg/ml, NSC59984 6 mM): 1.50 ± 0.18
- Combination index (CI) [6, 13]: 1.45 ± 0.12
- Combination index (CI) [6, 14]: 0.88 ± 0.11
- Combination index (CI) [6, 15]: 0.03 ± 0.01
- Combination index (CI) ([6]; CPT-11 30 mg/ml, NSC59984 6 mM): 1.10 ± 0.14
- Combination index (CI) [6, 16]: 0.95 ± 0.05
- Combination index (CI) [6, 17]: 0.20 ± 0.04
- Combination index (CI) [6, 18]: 0.03 ± 0.00
- Combination index (CI) ([6]; CPT-11 60 mg/ml, NSC59984 6 mM): 0.58 ± 0.10
- Combination index (CI) [6, 19]: 0.44 ± 0.06
- Combination index (CI) [6, 20]: 0.01 ± 0.00
- Combination index (CI) [6, 21]: 0.05 ± 0.00
- Combination index (CI) [6, 22]: 0.96 ± 0.22
- Combination index (CI) [6, 23]: 0.29 ± 0.04
- Combination index (CI) [6, 24]: 0.01 ± 0.00
- Combination index (CI) [6, 25]: 0.11 ± 0.02
- combinational treatment with CPT11 ([6]; normal fibroblast Wi38 cells): synergic activity
- Combination index (CI) ([7]; CPT-11 15 mg/ml, NSC59984 6 mM): 3.01 ± 0.20
- Combination index (CI) [7, 13]: 2.02 ± 0.27
- Combination index (CI) [7, 14]: 0.66 ± 0.04
- Combination index (CI) [7, 15]: 1.00 ± 0.02
- Combination index (CI) ([7]; CPT-11 30 mg/ml, NSC59984 6 mM): 1.80 ± 0.15
- Combination index (CI) [7, 16]: 0.38 ± 0.04
- Combination index (CI) [7, 17]: 0.65 ± 0.02
- Combination index (CI) [7, 18]: 0.40 ± 0.04
- Combination index (CI) ([7]; CPT-11 60 mg/ml, NSC59984 6 mM): 0.64 ± 0.17
- Combination index (CI) [7, 19]: 0.22 ± 0.03
- Combination index (CI) [7, 20]: 0.57 ± 0.00
- Combination index (CI) [7, 21]: 0.41 ± 0.04
- Combination index (CI) [7, 22]: 0.18 ± 0.01
- Combination index (CI) [7, 23]: 0.36 ± 0.08
- Combination index (CI) [7, 24]: 0.62 ± 0.05
- Combination index (CI) [7, 25]: 0.23 ± 0.04
- cell viability, combinational treatment with CPT11 ([7]; SW480 cancer cells as compared to MRC5 and Wi38 normal cells, 72 hr): significantly reduced
- combinational treatment with CPT11 ([7]; SW480 colon cancer cells): synergic activity
- Combination index (CI) ([8]; CPT-11 15 mg/ml, NSC59984 50 μM): 0.00 ± 0.00
- Combination index (CI) ([8]; CPT-11 15 mg/ml, NSC59984 6 mM): 1.06 ± 0.43
- Combination index (CI) [8, 13]: 0.91 ± 0.21
- Combination index (CI) [8, 14]: 0.54 ± 0.03
- Combination index (CI) ([8]; CPT-11 30 mg/ml, NSC59984 50 μM): 0.00 ± 0.00
- Combination index (CI) ([8]; CPT-11 30 mg/ml, NSC59984 6 mM): 0.75 ± 0.09
- Combination index (CI) [8, 16]: 0.40 ± 0.07
- Combination index (CI) [8, 17]: 0.12 ± 0.07
- Combination index (CI) ([8]; CPT-11 60 mg/ml, NSC59984 50 μM): 0.00 ± 0.00
- Combination index (CI) ([8]; CPT-11 60 mg/ml, NSC59984 6 mM): 0.49 ± 0.09
- Combination index (CI) [8, 19]: 0.08 ± 0.04
- Combination index (CI) [8, 20]: 0.00 ± 0.00
- Combination index (CI) ([8]; CPT-11 120 mg/ml, NSC59984 50 μM): 0.02 ± 0.00
- Combination index (CI) [8, 22]: 0.06 ± 0.02
- Combination index (CI) [8, 23]: 0.00 ± 0.00
- Combination index (CI) [8, 24]: 0.00 ± 0.00
- combinational treatment with CPT11 ([8]; normal fibroblast MRC5 cells): synergic activity
- PARP cleavage ([9]; cancer cells, dose-dependent): increased
- PARP cleavage ([9]; normal cells, same doses): not observed
- NSC59984-induced PARP cleavage ([9]; p73 knock-down DLD-1 cells, 24 hours): partially abrogated
- Sub-G1 DNA content ([10]; 50 μM, 8 hours, DLD-1): 8.2%
- percentage of cells with sub-G1 content ([10]; DLD-1 cells, 72 hr): increased
- effect on percentage of cells with sub-G1 content ([10]; p73 knock-down DLD-1 cells, 72 hr): significantly reduced
- DNA content in Sub-G1 [11]: 12%
- DNA content in Sub-G1 [12]: 30%
